Measured values from patent US20090082332A1, “PURINE DERIVATIVES FOR THE TREATMENT OF VIRAL OR ALLERGIC DISEASES AND CANCERS” (priority 2005, published 2009).

target: T1, Recombinant human TLR7 (Homo sapiens, UniProt Q9NYK1); experiment: Human TLR7 assay (SEAP reporter in HEK293 cells); assay type: cell-based; settings: HEK293 cells expressing human TLR7 and pNiFty2-SEAP reporter; overnight incubation at 37° C., 0.1% (v/v) DMSO
T1 construct: expressed in transfected cells; host or cells: HEK293 cell line stably expressing the pNiFty2-SEAP reporter plasmid; TLR7 in pUNO vector, blasticidin selection
T1 sequence (Q9NYK1 27-1049): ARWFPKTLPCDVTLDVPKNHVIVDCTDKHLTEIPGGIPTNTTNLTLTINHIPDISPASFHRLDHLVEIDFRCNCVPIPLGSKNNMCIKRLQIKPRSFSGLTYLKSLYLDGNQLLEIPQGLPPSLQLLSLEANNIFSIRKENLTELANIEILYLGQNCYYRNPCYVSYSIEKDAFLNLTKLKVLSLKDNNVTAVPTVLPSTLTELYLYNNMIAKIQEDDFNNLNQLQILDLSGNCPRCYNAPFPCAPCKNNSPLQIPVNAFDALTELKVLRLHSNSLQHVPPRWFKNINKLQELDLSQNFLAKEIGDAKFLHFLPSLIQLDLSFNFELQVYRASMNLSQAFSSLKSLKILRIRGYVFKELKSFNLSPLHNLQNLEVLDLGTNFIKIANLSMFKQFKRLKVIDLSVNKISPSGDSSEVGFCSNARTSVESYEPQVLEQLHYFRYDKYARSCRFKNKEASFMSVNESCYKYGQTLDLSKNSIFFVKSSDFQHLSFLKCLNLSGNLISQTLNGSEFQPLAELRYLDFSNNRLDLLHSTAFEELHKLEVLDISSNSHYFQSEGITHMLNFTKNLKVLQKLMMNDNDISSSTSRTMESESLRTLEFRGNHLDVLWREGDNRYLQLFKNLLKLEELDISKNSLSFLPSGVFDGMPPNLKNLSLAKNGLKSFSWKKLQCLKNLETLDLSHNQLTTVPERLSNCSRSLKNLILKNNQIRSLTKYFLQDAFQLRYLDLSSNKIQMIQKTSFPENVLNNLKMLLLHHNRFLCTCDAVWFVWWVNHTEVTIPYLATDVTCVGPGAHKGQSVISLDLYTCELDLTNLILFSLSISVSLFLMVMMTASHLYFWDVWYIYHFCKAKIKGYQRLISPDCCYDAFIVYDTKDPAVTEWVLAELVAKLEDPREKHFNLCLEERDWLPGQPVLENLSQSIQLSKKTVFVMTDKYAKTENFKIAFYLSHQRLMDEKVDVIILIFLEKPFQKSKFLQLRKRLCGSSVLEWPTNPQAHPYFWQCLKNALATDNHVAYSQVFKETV
Source text: Recombinant human TLR7 was stably expressed in a HEK293 cell line already stably expressing the pNiFty2-SEAP reporter plasmid; integration of the reporter gene was maintained by selection with the antibiotic zeocin. The most common variant sequence of human TLR7 (represented by the EMBL sequence AF240467) was cloned into the mammalian cell expression vector pUNO and transfected into this reporter cell-line. Transfectants with stable expression were selected using the antibiotic blasticidin. In this reporter cell-line, expression of secreted alkaline phosphatase (SEAP) is controlled by an NFkB/ELAM-1 composite promoter comprising five NFkB sites combined with the proximal ELAM-1 promoter. TLR signaling leads to the translocation of NFkB and activation of the promoter results in expression of the SEAP gene. TLR7-specific activation was assessed by determining the level of SEAP produced following overnight incubation of the cells at 37° C. with the standard compound in the presence of 0.1% (v/v) dimethylsulfoxide (DMSO). Concentration dependent induction of SEAP production by compounds was expressed as the log of the minimal effective concentration of compound to induce SEAP release (pMEC).

| SMILES | pMEC (log of the minimal effective concentration of compound to induce SEAP release) |
| --- | --- |
| CCCCOc1nc(N)c2[nH]c(=O)n(CCCCN(Cc3cccc(CC(=O)OC)c3)C3CCN(C)CC3)c2n1 [Example 10, Methyl (3-{[[4-(6-amino-2-butoxy-8-oxo-7,8-dihydro-9H-purin-9-yl)butyl] (1-methylpiperidin-4-yl)amino]methyl}phenyl)acetate] | pMEC 8.4 |
| CCCCOc1nc(N)c2[nH]c(=O)n(CCCN(Cc3cccc(CC(=O)OC)c3)C3CCN(CC#N)CC3)c2n1 [Example 14, Methyl [3-({[3-(6-amino-2-butoxy-8-oxo-7,8-dihydro-9H-purin-9-yl)propyl][1-(cyanomethyl)piperidin-4-yl]amino}methyl)phenyl]acetate] | pMEC 7.7 |
| CCCCOc1nc(N)c2[nH]c(=O)n(CCCN(Cc3cccc(CC(=O)OC)c3)C3CCN(CCCC(=O)OC(C)(C)C)CC3)c2n1 [Example 17, tert-Butyl 4-(4-{[3-(6-amino-2-butoxy-8-oxo-7,8-dihydro-9H-purin-9-yl)propyl][3-(2-methoxy-2-oxoethyl)benzyl]amino}piperidin-1-yl)butanoate] | pMEC 9.1 |
